Data as given in patent publication US12370143B2, “Compound or salt thereof and lipid particles” (FUJIFILM Corporation, priority 2018, dated 2025).

Assays:
[1] = tested on: Factor VII (FVII) protein; experiment: Measurement of Factor VII (FVII) protein in mouse plasma after FVII-siRNA lipid particles; assay type: in vivo, C57BL6/J mice; details: 0.1 mg/kg caudal vein, plasma 24 hours after administration, PBS group = 100%
Method: (§1) The Factor VII (FVII) protein was measured according to the method described in Nature Biotechnology (2010) 28, 172-176. C57BL6/J mice were randomly grouped (n=3). A dispersion liquid of nucleic acid lipid particles was prepared by the same method as that in <Preparation of nucleic acid lipid particles>, except that FVII-siRNA having the sequence described in Molecular Therapy (2009) 17, p. 878 was used instead of Luc-siRNA. The dispersion liquid was administered to the caudal vein of the mice at a dosage of 0.1 mg/kg. For comparison, PBS at the same volume was administered to the caudal vein of the mice. Twenty four hours after the administration, blood was collected from the caudal vena cava, thereby obtaining plasma. The amount of FVII protein was quantified using the obtained plasma and a Biophen FVII assay kit (Aniara).
The FVII amount in the plasma sample of each individual in the PBS administration group was regarded as 100%, and the ratio of the FVII amount in the plasma sample of each individual to 100% was adopted as a measurement value.

[2] = Particle size of nucleic acid lipid particles (Luc2-siRNA); assay type: physicochemical; details: compound/DSPC/cholesterol/DMG-PEG2000 50/10/38.5/1.5
Procedure, shortened: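 Lipid particles formed from oil phase (test lipid/DSPC/cholesterol/DMG-PEG2000, 50/10/38.5/1.5 molar, 20 mmol/L total in ethanol) micromixed 1:3 with Luc2-siRNA in pH 4 acetate buffer (19.7 μmol/L); siRNA/lipid 339 mol/mol, PBS-diluted and dialyzed. Size measured on ELS-Z2 dynamic light scattering.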

[3] = Encapsulation rate of siRNA in nucleic acid lipid particles (Luc2-siRNA); assay type: physicochemical; details: compound/DSPC/cholesterol/DMG-PEG2000 50/10/38.5/1.5
Procedure, shortened: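 Encapsulation rate was calculated as (total − outer-phase siRNA)/total ×100. Total siRNA was quantified spectrophotometrically after lipid-dissolving ethanol precipitation, and unencapsulated siRNA by RiboGreen in TE (ex 485/em 535 nm). The particles were test lipid/DSPC/cholesterol/DMG-PEG2000 at 50/10/38.5/1.5, formed by microfluidic mixing with Luc2-siRNA at pH 4 and dialyzed against PBS.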

[4] = Nucleic acid encapsulation rate of nucleic acid lipid particles (FVII-siRNA); assay type: physicochemical
Method: A 3 mol/L aqueous sodium acetate solution (30 μL) and 9 μL of glycogen were added to 60 μL of the lipid particles retaining nucleic acids, and then 1.5 mL of ethanol was added thereto such that only the nucleic acids were precipitated while the lipid was dissolved. Then, the supernatant was removed by centrifugation. After the precipitates were air-dried for 15 minutes or longer, water was added thereto such that the precipitates were redissolved, and the concentration thereof was measured using Nanodrop NF1000 (Thermo Fisher Scientific), thereby quantifying the total nucleic acid concentration.
The nucleic acid concentration was quantified using a Quant-iT RiboGreen RNA Assay Kit (Thermo Fisher Scientific) according to the protocol. First, a 20×TE buffer included in the above kit was diluted with water, thereby obtaining a 1×TE buffer. TE represents Tris/EDTA (ethylenediaminetetraacetic acid). In order to quantify only the nucleic acid in the outer water phase, the dispersion liquid of lipid particles retaining nucleic acids was diluted 10,000× with the 1×TE buffer.
The 10,000× diluted dispersion liquid of lipid particles (100 μL) was put in a 96-well plate, then 100 μL of a RiboGreen reagent (reagent included in the Quanti-iT Ribogreen RNA Assay Kit described above) diluted 2000× with the 1×TE buffer was added to a sample, and fluorescence (excitation wavelength: 485 nm, fluorescence wavelength: 535 nm) was measured using a plate reader Infinit EF200 (TECAN), thereby quantifying the nucleic acid concentration in the outer water phase.
By using the total nucleic acid concentration obtained through the above steps and the quantified nucleic acid concentration in the outer water phase, the nucleic acid encapsulation rate of the nucleic acid lipid particles was calculated according to the following Equation. Nucleic acid encapsulation rate (%)=(total nucleic acid concentration−nucleic acid concentration in outer water phase)/total nucleic acid concentration×100 The results are shown in Table 2.
as §1

[5] = Particle size of nucleic acid lipid particles (FVII-siRNA); assay type: physicochemical
Method: The compounds described in Table 2, L-α-distearoylphosphatidylcholine (trade name: COATSOME® MC-8080; NOF corporation), cholesterol (trade name: Choesterol HP; NIPPON FINE CHEMICAL CO., LTD.), and 1,2-dimyristoyl-rac-glycero-3-(methylpolyoxyethylene 2000) (hereinafter, called DMG-PEG2000) (trade name: SUNBRIGHT® GM-020; NOF corporation) were dissolved in ethanol at a molar ratio of 50/10/38.5/1.5 such that the total lipid concentration became 20 mmol/L, thereby obtaining an oil phase.
An aqueous nucleic acid solution obtained by dissolving 5 mg of Luc2-siRNA having the sequence described in Biomacromolecules (2013) 14, p. 3905 in 1 mL of sterile water was diluted with 10 mmol/L acetate buffer having a pH 4 such that the nucleic acid concentration became 19.7 μmol/L, thereby obtaining a water phase. Then, the water phase and the oil phase were mixed together by a micromixer (see JP5288254B) using a syringe pump such that the volume ratio of water phase:oil phase became 3:1 (final ratio of siRNA/lipid=339 (mol/mol)), and the mixed solution was diluted 2× with PBS, thereby obtaining a dispersion liquid of nucleic acid lipid particles. The dispersion liquid was dialyzed (Slide-A-Lyzer G2, MWCO: 10 kD, Thermo Fisher Scientific) using a phosphate buffered saline such that ethanol was removed, thereby obtaining nucleic acid lipid particles.
The particle size of the nucleic acid lipid particles was measured by the same method as that in <Preparation of lipid particles>.
as §1

| SMILES | Relative amount of FVII protein (%) [1] [%] | Particle size (nm) [2] [nm] | Nucleic acid encapsulation rate [3] [%] | Nucleic acid encapsulation rate [4] [%] | Particle size (nm) [5] [nm] |
| --- | --- | --- | --- | --- | --- |
| CCCCCCCCCC(CCCCCCCCC)COC(=O)CCCC(CCCCCC)OC(=O)OCCN(CCN(CC)CC)C(C)C (stereo not shown) [Example 124, 2-Nonylundecyl 3-ethyl-12-hexyl-6-isopropyl-10-oxo-9,11-dioxa-3,6-diazahexadecan-16-oate] | 8 | 68.3 | 69 | 84 | 73.4 |
| CCCCCCCCC(CCCCCC)COC(=O)CCCCCCCCC(CCCCCC)OC(=O)OCCN(CCOC(=O)CCCCCCC)CCN(CC)CC (stereo not shown) [Example 99, 2-Hexyldecyl 3-ethyl-12-hexyl-6-(2-(octanoyloxy)ethyl)-10-oxo-9,11-dioxa-3,6-diazahenicosan-21-oate] | 3 | 68.9 | 81 | 79 | 72.3 |
| CCCCCCCCC(=O)OCCN(CCOC(=O)OC(CCCCCC)CCCCCCCCC(=O)OCCC(CCCCC)CCCCC)CCN(CC)CC (stereo not shown) [Example 126, 3-Pentyloctyl 3-ethyl-12-hexyl-6-(2-(nonanoyloxy)ethyl)-10-oxo-9,11-dioxa-3,6-diazahenicosan-21-oate] | 9 | 66.8 | 75 | 85 | 74.2 |
| CCCCCCCC(CCCCCCC)COC(=O)CCCCCCCCC(CCCCCC)OC(=O)OCCN(CCN(CC)CC)C(C)C (stereo not shown) [Example 133, 2-Heptylnonyl 3-ethyl-12-hexyl-6-isopropyl-10-oxo-9,11-dioxa-3,6-diazahenicosan-21-oate] | 16 | 75.8 | 78 | 78 | 75.8 |
| CCCCCCCCCC(=O)OCCN(CCOC(=O)OC(CCCCCC)CCCCCCCCC(=O)OCC(CCCCCC)CCCCCCCC)CCN(CC)CC (stereo not shown) [Example 98, 2-Hexyldecyl 6-(2-(decanoyloxy)ethyl)-3-ethyl-12-hexyl-10-oxo-9,11-dioxa-3,6-diazahenicosan-21-oate] | 2 | 74.9 | 82 | 76 | 68.3 |
| CCCCCCCCCCCC(=O)OCCN(CCOC(=O)OC(CCCCCC)CCCCCCCCC(=O)OCC(CCCC)CCCCCC)CCN(CC)CC (stereo not shown) [Example 86, 2-butyloctyl 6-(2-(dodecanoyloxy)ethyl)-3-ethyl-12-hexyl-10-oxo-9,11-dioxa-3,6-diazahenicosan-21-oate] | 15 | 67.1 | 74 | 88 | 69.2 |
| CCCCCCCC(=O)OCCN(CCOC(=O)OC(CCCCCC)CCCC(=O)OCC(CCCC)CCCCCC)CCN(CC)CC (stereo not shown) [Example 108, 2-Butyloctyl 3-ethyl-12-hexyl-6-(2-(octanoyloxy)ethyl)-10-oxo-9,11-dioxa-3,6-diazahexadecan-16-oate] | 3 | 78.7 | 81 | 90 | 78.8 |
| CCCCCCC(CCCCCC)C(=O)OCCCCCCC(CCCCCCOC(=O)C(CCCCCC)CCCCCC)OC(=O)OCCN(CC)CCN(CC)CC [Example 77, 7-(((2-((2-(Diethylamino)ethyl)(ethyl)amino)ethoxy)carbonyl)oxy)tridecane-1,13-diylbis(2-hexyloctanoate)] | 3 | 81.9 | 88 | 76 | 81.2 |
| CCCCCCCCC(=O)OCCN(CCOC(=O)OC(CCCCCC)CCCCCCCCC(=O)OCC(CCCCC)CCCCC)CCN(CC)CC (stereo not shown) [Example 130, 2-Pentylheptyl 3-ethyl-12-hexyl-6-(2-(nonanoyloxy)ethyl)-10-oxo-9,11-dioxa-3,6-diazahenicosan-21-oate] | 9 | 64.9 | 66 | 68 | 74.1 |
| CCCCC/C=C\C/C=C\CCCCCCCCC(CCCCCCCC/C=C\C/C=C\CCCCC)N(C)CCN(C)C [Comparative Example 9, N1-((6Z,9Z,28Z,31Z)-heptatriaconta-6,9,28,31-tetraen-19-yl)-N1,N2,N2-trimethylethane-1,2-diamine, reference compound] | 44 | 58.4 | 84 | 71 | 60 |
| CCCCCCCCC(CCCCCC)COC(=O)CCCCCCCC(CCCCCC)OC(=O)OCCN(CCN(CC)CC)C(C)C (stereo not shown) [Example 117, 2-Hexyldecyl 3-ethyl-12-hexyl-6-isopropyl-10-oxo-9,11-dioxa-3,6-diazaicosan-20-oate] | 12 | 77.3 | 90 | 89 | 85.4 |
| CCCCCCCC/C=C\CCCCCCCC(=O)OCCN(CCOC(=O)OC(CCCCCC)CCCCCCCCC(=O)OCC(CCCC)CCCCCC)CCN(CC)CC (stereo not shown) [Example 91, 2-Butyloctyl 3-ethyl-12-hexyl-6-(2-(oleoyloxy)ethyl)-10-oxo-9,11-dioxa-3,6-diazahenicosan-21-oate] | 9 | 75.0 | 69 | 76 | 66.5 |
| CCCCCCCCC(CCCCCC)COC(=O)CCCCCCCCC(CCCCCC)OC(=O)OCCN(CCN(CC)CC)C(C)C (stereo not shown) [Example 89, 2-Hexyldecyl 3-ethyl-12-hexyl-6-isopropyl-10-oxo-9,11-dioxa-3,6-diazahenicosan-21-oate] | 8 | 68.2 | 83 | 94 | 77.3 |
| CCCCC/C=C\C/C=C\CCCCCCCCC(CCCCCCCC/C=C\C/C=C\CCCCC)OC(=O)OCCN(CCN(CC)CC)C(C)C [Example 42, 2-((2-(Diethylamino)ethyl)(isopropyl)amino)ethyl((6Z,9Z,28Z,31Z)-heptatriaconta-6,9,28,31-tetraen-19-yl)carbonate] | 9 | 70 | 78 | 70 | 68.1 |
